Test results: ChEMBL document CHEMBL5316357, “Discovery of Linvencorvir (RG7907), a Hepatitis B Virus Core Protein Allosteric Modulator, for the Treatment of Chronic HBV Infection” (J Med Chem, 2023)

Experiments:
Hepatitis B virus = assay: Antiviral activity against HBV stably transfected in human HepG2.2.15 cells assessed as reduction of HBV DNA replication incubated for 5 days by q-PCR analysis; assay type: functional, organism-based; conditions: HepG2 2.2.15, 120 h
[1] = Cytotoxicity against human HepDE19 cells assessed as reduction in cell viability incubated for 5 days by CCK-8 assay; assay type: functional; conditions: HepDE19, 120 h, time 5 day
[2] = Clearance in human liver microsomes at 1 uM measured upto 30 mins in presence of NADPH by LC-MS/MS analysis; assay type: ADME, Microsome
[3] = Induction of CYP3A4 mRNA expression level in human hepatocytes at 10 uM incubated for 24 hrs by q-PCR analysis; assay type: ADME, cell-based, Hepatocyte
[4] = target: Voltage-gated inwardly rectifying potassium channel KCNH2 (Homo sapiens, UniProt Q12809); assay: (§1) Inhibition of hERG stably expressed in CHO cells by whole-cell voltage-clamp assay; assay type: toxicity, cell-based
hERG = hERG (Homo sapiens, UniProt Q12809); assay: as §1; assay type: toxicity, cell-based; conditions: human, CHO cells stably expressing hERG
[5] = Octanol-water partition coefficient, logD of the compound at pH 7.4; assay type: physicochemical

Chain of Voltage-gated inwardly rectifying potassium channel KCNH2 (Q12809 whole entry): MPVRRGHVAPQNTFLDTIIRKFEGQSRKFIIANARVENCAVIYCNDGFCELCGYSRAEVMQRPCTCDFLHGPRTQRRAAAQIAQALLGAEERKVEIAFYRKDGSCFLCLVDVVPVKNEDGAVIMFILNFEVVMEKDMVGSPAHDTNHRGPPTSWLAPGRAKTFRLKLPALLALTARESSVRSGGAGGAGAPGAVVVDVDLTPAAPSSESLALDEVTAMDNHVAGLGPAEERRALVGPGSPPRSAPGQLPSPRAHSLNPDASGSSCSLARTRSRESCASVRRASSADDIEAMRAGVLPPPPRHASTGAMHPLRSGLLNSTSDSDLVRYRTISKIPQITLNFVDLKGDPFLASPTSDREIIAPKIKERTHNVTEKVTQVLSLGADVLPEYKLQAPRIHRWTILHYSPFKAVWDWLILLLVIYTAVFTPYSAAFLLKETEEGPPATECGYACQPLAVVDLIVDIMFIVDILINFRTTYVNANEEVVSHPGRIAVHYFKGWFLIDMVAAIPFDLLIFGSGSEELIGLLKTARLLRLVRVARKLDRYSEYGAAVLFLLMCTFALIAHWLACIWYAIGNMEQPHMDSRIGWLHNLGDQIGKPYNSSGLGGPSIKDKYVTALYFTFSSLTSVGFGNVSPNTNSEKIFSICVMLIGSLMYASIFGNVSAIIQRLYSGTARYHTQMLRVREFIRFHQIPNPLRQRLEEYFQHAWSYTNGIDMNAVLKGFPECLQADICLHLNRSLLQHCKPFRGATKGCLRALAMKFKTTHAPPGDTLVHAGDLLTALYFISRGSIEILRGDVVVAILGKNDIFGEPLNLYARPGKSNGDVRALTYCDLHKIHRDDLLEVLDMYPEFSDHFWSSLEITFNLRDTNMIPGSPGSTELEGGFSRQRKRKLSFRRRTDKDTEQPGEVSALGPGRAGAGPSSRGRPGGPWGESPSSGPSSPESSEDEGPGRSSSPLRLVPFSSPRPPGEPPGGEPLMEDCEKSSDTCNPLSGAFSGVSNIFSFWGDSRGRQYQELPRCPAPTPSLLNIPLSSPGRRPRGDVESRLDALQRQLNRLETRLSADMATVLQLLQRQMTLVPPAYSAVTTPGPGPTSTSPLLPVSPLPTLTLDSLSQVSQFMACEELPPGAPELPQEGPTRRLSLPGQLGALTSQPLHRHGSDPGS
Chain of hERG (Q12809 whole entry): as above

| SMILES | EC50 (Hepatitis B virus) [nM] | CLhep predicted at 1 µM [2] [mL/min/kg] | Activity [3] [%] | logD [5] | CC50 [1] [nM] | IC50 [4] [nM] | IC20 (hERG) [nM] |
| --- | --- | --- | --- | --- | --- | --- | --- |
| CCOC(=O)C1=C(CN2C[C@H]3CN(C4CC4)C(=O)N3C[C@H]2C(=O)O)NC(c2nccs2)=N[C@H]1c1ccc(F)cc1Cl | 145 | 1.7 |  |  | > 100000 |  |  |
| CCOC(=O)C1=C(CN2C[C@H]3CN(C4CC4)C(=O)N3C[C@@H]2C(=O)O)NC(c2nccs2)=N[C@H]1c1ccc(F)cc1Cl | 2 | 2.7 | 6 |  | > 100000 | > 20000 | > 10000 |
| CCOC(=O)C1=C(CN2C[C@H]3CN(C(C)(C)C)C(=O)N3C[C@H]2C(=O)O)NC(c2nccs2)=N[C@H]1c1ccc(F)cc1Cl | 62 |  |  |  | > 100000 |  |  |
| COC(=O)C1=C(CN2CCN3C(=O)NC[C@@H]3C2)NC(c2nccs2)=N[C@H]1c1ccc(F)cc1Cl | 2 |  | 17 |  | 52000 |  |  |
| CCOC(=O)C1=C(CN2CCN3C(=O)N(c4ccccc4C(=O)O)C[C@@H]3C2)NC(c2nccs2)=N[C@H]1c1ccc(F)cc1Cl (single isomer, unassigned) | 30 | 4.4 |  |  |  |  |  |
| COC(=O)C1=C(CN2CCN3C(=O)OC[C@H]3C2)NC(c2nccs2)=N[C@H]1c1ccc(F)cc1Cl | 23 |  |  |  | 76000 |  |  |
| CCOC(=O)C1=C(CN2C[C@H]3CN(C)C(=O)N3C[C@H]2C(=O)O)NC(c2nccs2)=N[C@H]1c1cccc(F)c1Cl | 150 |  |  |  | > 100000 |  |  |
| COC(=O)C1=C(CN2CCOC[C@H]2C(=O)O)N=C(c2nccs2)N[C@H]1c1ccc(F)cc1Cl | 3 |  | 110 |  | > 100000 |  |  |
| COC(=O)C1=C(CN2CCN(C(C)=O)CC2)NC(c2nccs2)=N[C@H]1c1ccc(F)cc1Cl | 50 |  |  |  | > 100000 |  |  |
| COC(=O)C1=C(CN2CCN3C(=O)OC[C@@H]3C2)NC(c2nccs2)=N[C@H]1c1ccc(F)cc1Cl | 3 |  | 70 |  | 79000 |  |  |
| COC(=O)C1=C(CN2CCN3C(=O)NC[C@H]3C2)NC(c2nccs2)=N[C@H]1c1ccc(F)cc1Cl | 150 |  |  |  | 89000 |  |  |
| CCOC(=O)C1=C(CN2CCN3C(=O)N(c4ccc(C(=O)O)cc4)C[C@@H]3C2)NC(c2nccs2)=N[C@H]1c1ccc(F)cc1Cl (single isomer, unassigned) | 2 |  |  |  | 28000 |  |  |
| COC(=O)C1=C(CN2CCc3c([nH][nH]c3=O)C2)NC(c2nccs2)=N[C@H]1c1ccc(F)cc1Cl | 750 |  | 13 |  | > 100000 |  |  |
| COC(=O)C1=C(CN2CCN3CCCC3C2)NC(c2nccs2)=N[C@H]1c1ccc(F)cc1Cl (stereo not given in full) | > 1000 |  |  |  |  |  |  |

Now from value to molecule, other results behind:

| EC50 (Hepatitis B virus) [nM] | CLhep predicted at 1 µM [2] [mL/min/kg] | Activity [3] [%] | logD [5] | SMILES | CC50 [1] [nM] | IC50 [4] [nM] | IC20 (hERG) [nM] |
| --- | --- | --- | --- | --- | --- | --- | --- |
| 7 | 0.3 |  |  | COC(=O)C1=C(CN2CCN3C(=O)N(c4cccc(C(=O)O)c4)C[C@@H]3C2)NC(c2nccs2)=N[C@H]1c1ccc(F)cc1Cl (single isomer, unassigned) | 33000 |  |  |
| 200 | 1.6 |  |  | CCOC(=O)C1=C(CN2CCN3C(=O)N(C(C)(C)C(=O)O)C[C@@H]3C2)NC(c2nccs2)=N[C@H]1c1ccc(F)cc1Cl | 61000 |  |  |
| 11 | 0.3 |  |  | COC(=O)C1=C(CN2CCN3C(=O)N(CC4(C(=O)O)CC4)C[C@@H]3C2)NC(c2nccs2)=N[C@H]1c1ccc(F)cc1Cl | > 100000 | 7800 | 2300 |
| 55 |  |  |  | COC(=O)C1=C(CN2CCN3C(=O)COCC3C2)NC(c2nccs2)=N[C@H]1c1ccc(F)cc1Cl (stereo not given in full) | 68000 |  |  |
| 14 |  | 44 |  | COC(=O)C1=C(CN2CCN3C(=O)CC[C@@H]3C2)NC(c2nccs2)=N[C@H]1c1ccc(F)cc1Cl | 45000 |  |  |
| 30 | 0.4 |  |  | COC(=O)C1=C(CN2CCN3C(=O)N([C@H]4C[C@@H](C(=O)O)C4)C[C@@H]3C2)NC(c2nccs2)=N[C@H]1c1ccc(F)cc1Cl | > 100000 |  |  |
| 100 |  |  |  | COC(=O)C1=C(CN2CCN3C(=O)OCCC3C2)NC(c2nccs2)=N[C@H]1c1ccc(F)cc1Cl (stereo not given in full) | 62000 |  |  |
| 11 | 2.3 | 2.2 |  | COC(=O)C1=C(CN2CCN3C(=O)N(CC4(C(=O)O)CCC4)C[C@@H]3C2)NC(c2nccs2)=N[C@H]1c1ccc(F)cc1Cl | > 100000 | > 20000 | 7200 |
| 2 | 0.43 |  |  | COC(=O)C1=C(CN2CCN3C(=O)N(c4ccc(C(=O)O)cc4)C[C@@H]3C2)NC(c2nccs2)=N[C@H]1c1ccc(F)cc1Cl (single isomer, unassigned) |  | > 10000 | 4000 |
| 16 | 2.7 | 2.4 |  | CCOC(=O)C1=C(CN2CCN3C(=O)N(CC(C)C(=O)O)C[C@@H]3C2)NC(c2nccs2)=N[C@H]1c1ccc(F)cc1Cl (stereo not given in full) | > 100000 | > 20000 | > 10000 |
| 16 |  |  | 1.26 | COC(=O)C1=C(CN2CCN3C(=O)N(CC(C)(C)C(=O)O)C[C@@H]3C2)NC(c2nccs2)=N[C@H]1c1cccc(F)c1C | > 100000 |  |  |
| 14 |  |  | 1.21 | COC(=O)C1=C(CN2CCN3C(=O)N(CC(C)(C)C(=O)O)C[C@@H]3C2)NC(c2nccs2)=N[C@H]1c1cccc(F)c1Cl | > 100000 |  |  |
| 160 |  |  |  | COC(=O)C1=C(CN2CCN3C(=O)CC[C@H]3C2)NC(c2nccs2)=N[C@H]1c1ccc(F)cc1Cl | 71000 |  |  |
| 9 | 8.1 | 0 |  | COC(=O)C1=C(CN2CCN3C(=O)N(C4CCC(C(=O)O)CC4)C[C@@H]3C2)NC(c2nccs2)=N[C@H]1c1ccc(F)cc1Cl (stereo not given in full) | 70000 | > 20000 | > 10000 |
| 34 |  |  |  | COC(=O)C1=C(CN2CCN3C(=O)N([C@H]4C[C@H](C(=O)O)C4)C[C@@H]3C2)NC(c2nccs2)=N[C@H]1c1ccc(F)cc1Cl | 43000 |  |  |
| 30 | 2.5 |  |  | COC(=O)C1=C(CN2CCN3C(=O)N(C(C)(C)CC(=O)O)C[C@@H]3C2)NC(c2nccs2)=N[C@H]1c1ccc(F)cc1Cl | > 100000 |  |  |
| 8 | 4.6 | 0 |  | COC(=O)C1=C(CN2CCN3C(=O)N(CCC(C)(C)C(=O)O)C[C@@H]3C2)NC(c2nccs2)=N[C@H]1c1ccc(F)cc1Cl | > 100000 |  |  |
| 9 | 5.2 |  |  | COC(=O)C1=C(CN2CCN3C(=O)N([C@H]4CC[C@H](C(=O)O)CC4)C[C@@H]3C2)NC(c2nccs2)=N[C@H]1c1ccc(F)cc1Cl | 43000 |  |  |
| 2 | 5.8 | 1.7 |  | CCOC(=O)C1=C(CN2C[C@H]3CN(C)C(=O)N3C[C@@H]2C(=O)O)NC(c2nccs2)=N[C@H]1c1cccc(F)c1Cl | > 100000 | > 20000 | > 10000 |
